ChEMBL document CHEMBL4316624, “Analyzing the role of cannabinoids as modulators of Wnt/β-catenin signaling pathway for their use in the management of neuropathic pain” (Bioorg Med Chem Lett, 2019)
Calls of active or inactive are those of the source. The calls are words filed in the database; no cut-off is given here.

Tests used:
HCT-116 [1] = test: Cytotoxicity against human HCT116 cells assessed as reduction in cell viability incubated for 72 hrs by MTT assay; type: cell-based; conditions: HCT-116, 72 h
OVCAR [2] = test: Cytotoxicity against human OVCAR cells assessed as reduction in cell viability incubated for 72 hrs by MTT assay; type: cell-based
A549 [3] = test: Cytotoxicity against human A549 cells assessed as reduction in cell viability incubated for 72 hrs by MTT assay; type: cell-based; conditions: A549, 72 h
MCF7 [4] = test: Cytotoxicity against human MCF7 cells assessed as reduction in cell viability incubated for 72 hrs by MTT assay; type: cell-based; conditions: MCF7, 72 h
PC-3 [5] = test: Cytotoxicity against human PC3 cells assessed as reduction in cell viability incubated for 72 hrs by MTT assay; type: cell-based; conditions: PC-3, 72 h
HepG2 [6] = test: Cytotoxicity against human HepG2 cells assessed as reduction in cell viability incubated for 72 hrs by MTT assay; type: cell-based; conditions: HepG2, 72 h
SH-SY5Y [7] = test: Cytotoxicity against human SH-SY5Y cells assessed as reduction in cell viability incubated for 72 hrs by MTT assay; type: cell-based
HCT-116 [8] = test: Cytotoxicity against human HCT116 cells assessed as reduction in cell viability incubated for 24 to 72 hrs by MTT assay; type: cell-based
OVCAR [9] = test: Cytotoxicity against human OVCAR cells assessed as reduction in cell viability incubated for 24 to 72 hrs by MTT assay; type: ADME, cell-based
A549 [10] = test: Cytotoxicity against human A549 cells assessed as reduction in cell viability incubated for 24 to 72 hrs by MTT assay; type: cell-based
MCF7 [11] = test: Cytotoxicity against human MCF7 cells assessed as reduction in cell viability incubated for 24 to 72 hrs by MTT assay; type: cell-based
PC-3 [12] = test: Cytotoxicity against human PC3 cells assessed as reduction in cell viability incubated for 24 to 72 hrs by MTT assay; type: cell-based
HepG2 [13] = test: Cytotoxicity against human HepG2 cells assessed as reduction in cell viability incubated for 24 to 72 hrs by MTT assay; type: cell-based
SH-SY5Y [14] = test: Cytotoxicity against human SH-SY5Y cells assessed as reduction in cell viability incubated for 24 to 72 hrs by MTT assay; type: cell-based
HepG2 [15] = test: Inhibition of Wnt/beta-catenin signaling pathway in human HepG2 cells assessed as reduction in TCF-dependent beta-catenin mediated transcription incubated for 24 hrs by Topflash reporter assay; type: cell-based
HepG2 [16] = test: Inhibition of Wnt/beta-catenin signaling pathway in human HepG2 cells assessed as reduction in TCF-dependent beta-catenin mediated transcription at 20 to 40 uM incubated for 24 hrs by Topflash reporter assay; type: cell-based
HepG2 [17] = test: Inhibition of Wnt/beta-catenin signaling pathway in human HepG2 cells assessed as reduction in TCF-dependent beta-catenin mediated transcription at 5 to 40 uM incubated for 24 hrs by Topflash reporter assay; type: cell-based

C=C(C)[C@@H]1CC[C@H]2O[C@H]2[C@H]1c1c(O)cc(CCCCC)cc1O
IC50 (HCT-116 [1]): 15.3 µM
IC50 (OVCAR [2]): 56.8 µM
IC50 (A549 [3]): 45.2 µM
IC50 (MCF7 [4]): 47.2 µM
IC50 (PC-3 [5]): 17.6 µM
IC50 (HepG2 [6]): 53 µM
IC50 (SH-SY5Y [7]): 51 µM
Activity (HCT-116 [8]): Dose-dependent effect
Activity (OVCAR [9]): Dose-dependent effect
Activity (A549 [10]): Dose-dependent effect
Activity (MCF7 [11]): Dose-dependent effect
Activity (PC-3 [12]): Dose-dependent effect
Activity (HepG2 [13]): Dose-dependent effect
Activity (SH-SY5Y [14]): Dose-dependent effect
inhibition (HepG2 [15]): Dose-dependent effect

CCCCCc1cc(O)c2c(c1)OC(C)(CCC=C(C)C)C=C2 (configuration not stated) [CANNABICHROMENE]
IC50 (HCT-116 [1]): 60 µM
IC50 (OVCAR [2]): 65 µM
IC50 (A549 [3]): 60 µM
IC50 (MCF7 [4]): 40 µM
IC50 (PC-3 [5]): 40 µM
IC50 (HepG2 [6]): 60 µM
IC50 (SH-SY5Y [7]): 77 µM
Activity (HCT-116 [8]): Dose-dependent effect
Activity (OVCAR [9]): Dose-dependent effect
Activity (A549 [10]): Dose-dependent effect
Activity (MCF7 [11]): Dose-dependent effect
Activity (PC-3 [12]): Dose-dependent effect
Activity (HepG2 [13]): Dose-dependent effect
Activity (SH-SY5Y [14]): Dose-dependent effect
inhibition (HepG2 [16]): inactive

C=C(C)[C@@H]1CCC(C)=C[C@H]1c1c(O)cc(CCCCC)cc1O [CANNABIDIOL]
IC50 (HCT-116 [1]): 18 µM
IC50 (OVCAR [2]): 50 µM
IC50 (A549 [3]): 40 µM
IC50 (MCF7 [4]): 55 µM
IC50 (PC-3 [5]): 12 µM
IC50 (HepG2 [6]): 42.8 µM
IC50 (SH-SY5Y [7]): 48 µM
Activity (HCT-116 [8]): Dose-dependent effect
Activity (OVCAR [9]): Dose-dependent effect
Activity (A549 [10]): Dose-dependent effect
Activity (MCF7 [11]): Dose-dependent effect
Activity (PC-3 [12]): Dose-dependent effect
Activity (HepG2 [13]): Dose-dependent effect
Activity (SH-SY5Y [14]): Dose-dependent effect
inhibition (HepG2 [15]): Dose-dependent effect

C=C(C)[C@@H]1CCC(C)=C[C@H]1c1c(O)cc(CCC)cc1O [CANNABIDIVARIN]
IC50 (HCT-116 [1]): 13 µM
IC50 (OVCAR [2]): 57 µM
IC50 (A549 [3]): 39 µM
IC50 (MCF7 [4]): 53 µM
IC50 (PC-3 [5]): 44 µM
IC50 (HepG2 [6]): 64 µM
IC50 (SH-SY5Y [7]): 55 µM
Activity (HCT-116 [8]): Dose-dependent effect
Activity (OVCAR [9]): Dose-dependent effect
Activity (A549 [10]): Dose-dependent effect
Activity (MCF7 [11]): Dose-dependent effect
Activity (PC-3 [12]): Dose-dependent effect
Activity (HepG2 [13]): Dose-dependent effect
Activity (SH-SY5Y [14]): Dose-dependent effect
inhibition (HepG2 [15]): Dose-dependent effect

CCCCCc1cc(O)c2c(c1)OC(C)(C)c1ccc(C)cc1-2 [CANNABINOL]
IC50 (HCT-116 [1]): 80 µM
IC50 (OVCAR [2]): 77 µM
IC50 (A549 [3]): 91 µM
IC50 (MCF7 [4]): 81 µM
IC50 (PC-3 [5]): 78 µM
IC50 (HepG2 [6]): 74 µM
IC50 (SH-SY5Y [7]): 97 µM
Activity (HCT-116 [8]): Dose-dependent effect
Activity (OVCAR [9]): Dose-dependent effect
Activity (A549 [10]): Dose-dependent effect
Activity (MCF7 [11]): Dose-dependent effect
Activity (PC-3 [12]): Dose-dependent effect
Activity (HepG2 [13]): Dose-dependent effect
Activity (SH-SY5Y [14]): Dose-dependent effect
inhibition (HepG2 [17]): inactive

CCCCCc1cc(O)c2c(c1)OC(C)(C)[C@@H]1CCC(C)=C[C@@H]21 [DRONABINOL]
IC50 (HCT-116 [1]): 42 µM
IC50 (OVCAR [2]): 63 µM
IC50 (A549 [3]): 45 µM
IC50 (MCF7 [4]): 57 µM
IC50 (PC-3 [5]): 65 µM
IC50 (HepG2 [6]): 59 µM
IC50 (SH-SY5Y [7]): 50 µM
Activity (HCT-116 [8]): Dose-dependent effect
Activity (OVCAR [9]): Dose-dependent effect
Activity (A549 [10]): Dose-dependent effect
Activity (MCF7 [11]): Dose-dependent effect
Activity (PC-3 [12]): Dose-dependent effect
Activity (HepG2 [13]): Dose-dependent effect
Activity (SH-SY5Y [14]): Dose-dependent effect
inhibition (HepG2 [16]): inactive

CC[C@@H](C(=O)[C@@H](C)[C@@H](O)[C@H](C)[C@@H]1O[C@@H]([C@@H](CC)C(=O)O)CC[C@@H]1C)[C@H]1O[C@]2(C=C[C@@H](O)[C@]3(CC[C@@](C)([C@H]4CC[C@](O)(CC)[C@H](C)O4)O3)O2)[C@H](C)C[C@@H]1C [SALINOMYCIN]
IC50 (HepG2 [6]): 24.5 µM
inhibition (HepG2 [15]): Dose-dependent effect

CCCc1cc(O)c2c(c1)OC(C)(C)[C@@H]1CCC(C)=C[C@@H]21 [TETRAHYDROCANNABIVARIN]
IC50 (HCT-116 [1]): 83 µM
IC50 (OVCAR [2]): 75 µM
IC50 (A549 [3]): 90 µM
IC50 (MCF7 [4]): 80 µM
IC50 (PC-3 [5]): 79 µM
IC50 (HepG2 [6]): 75 µM
IC50 (SH-SY5Y [7]): 95 µM
Activity (HCT-116 [8]): Dose-dependent effect
Activity (OVCAR [9]): Dose-dependent effect
Activity (A549 [10]): Dose-dependent effect
Activity (MCF7 [11]): Dose-dependent effect
Activity (PC-3 [12]): Dose-dependent effect
Activity (HepG2 [13]): Dose-dependent effect
Activity (SH-SY5Y [14]): Dose-dependent effect
inhibition (HepG2 [16]): inactive
